This test is described as follows: Antagonist activity at human EGFP-fused CCR3 expressed in mouse L1.2 cells assessed as inhibition of CCL11-induced chemotaxis measured after 1.5 hrs by PicoGreen dsDNA reagent-based assay.

Consider `C/C=C/c1cc(OC)c2c(c1)[C@@H](C)[C@H](c1cc(OC)c(O)c(OC)c1)O2`, for which the EC50 (usually the concentration needed to bring the measured effect to its halfway point) is 1600 nM.
The value for `C=CCc1cc(OC)c(O[C@@H](C)[C@H](OC(C)=O)c2ccc(OC)c(OC)c2)c(OC)c1` was 1400 nM.
With `C=CCc1cc(OC)c(O[C@H](C)[C@@H](O)c2cc(OC)c(O)c(OC)c2)c(OC)c1`, the EC50 worked out at 1500 nM.
The value for `COC(=O)[C@H](Cc1ccc([N+](=O)[O-])cc1)NC(=O)c1cccc2ccccc12` [(S)-2-[(Naphthalene-1-carbonyl)-amino]-3-(4-nitro-phenyl)-propionic acid methyl ester] was 780 nM.
